In patent US11000033B2, “Ketone or oxime compound, and herbicide” (NISSAN CHEMICAL CORPORATION, priority 2014, dated 2021):

Legend:
Assay type in all cases: in vivo
[1] = system: beet; test: Test Example 5: effect on crop by foliage application, plastic box (symbol f); settings: 320 g/ha, 3 weeks after application
In short: (§1)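 A greenhouse held between 25° C. and 30° C. was used to grow plants sown spot-wise, beneath ~1.5 cm of soil, in boxes of sterilized diluvial soil.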

[2] = system: Abutilon theophrasti; test: Test Example 5: herbicidal effect by foliage application, plastic box (symbol M); settings: 320 g/ha, 3 weeks after application
In short: (§2)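 Visual herbicidal score, taken three weeks post-application, of seedlings sprayed on the foliage with water-diluted emulsion at a predetermined amount; plants were 14 days old, greenhouse-raised at 25° C. to 30° C.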

[3] = system: Apera spica-venti; test: Test Example 5: herbicidal effect by foliage application, plastic box (symbol L); settings: 320 g/ha, 3 weeks after application
In short: as §2

[4] = system: soybean; test: Test Example 4: effect on crop by soil treatment (symbol d); settings: for d: soybean, effect grade on crop: 320 g/ha
In short: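 Steps: fill box with sterilized diluvial soil; sow seed spot-like; cover with ~1.5 cm soil; grow in greenhouse (25° C. to 30° C.).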

[5] = system: Lolium multiflorum Lam.; test: Test Example 5: herbicidal effect by foliage application, plastic box (symbol K); settings: 320 g/ha, 3 weeks after application
In short: as §2

[6] = system: wheat; test: Test Example 5: effect on crop by foliage application, plastic box (symbol e); settings: 320 g/ha, 3 weeks after application
In short: as §1

[7] = system: Abutilon theophrasti; test: Test Example 4: herbicidal effect by soil treatment (symbol M); settings: application herbicide amount 320 g/ha
In short: (§3)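 Seeds were sown in sterilized diluvial soil, covered with about 1.5 cm of soil, and the soil surface was sprayed with a water-diluted emulsion of the compound at a predetermined rate. Plants grew in a greenhouse at 25° C. to 30° C.; effects were scored visually 3 weeks after application.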

[8] = system: Chenopodium album; test: Test Example 5: herbicidal effect by foliage application, plastic box (symbol O); settings: 320 g/ha, 3 weeks after application
In short: as §2

[9] = system: Digitaria ciliaris; test: Test Example 4: herbicidal effect by soil treatment (symbol F)
In short: as §3

[10] = system: Setaria viridis; test: Test Example 5: herbicidal effect by foliage application, plastic box (symbol G); settings: 320 g/ha, 3 weeks after application
In short: as §2

[11] = system: Avena fatua; test: Test Example 5: herbicidal effect by foliage application, plastic box (symbol I); settings: 320 g/ha, 3 weeks after application
In short: as §2

[12] = system: Cyperus difformis; test: Test Example 3: herbicidal effect by foliage application, Wagner pot (symbol E); settings: application herbicide amount 320 g/ha
In short: (§4)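 Seeds sown in alluvial soil kept under 0.1–0.5 cm water, greenhouse 25–30 °C; 14 d growth. Leaves treated by small sprayer with water-diluted emulsion at a predetermined rate. Effect graded by set scale, 3 weeks.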

[13] = system: Lolium multiflorum Lam.; test: Test Example 4: herbicidal effect by soil treatment (symbol K)
In short: as §3

[14] = system: rapeseed; test: Test Example 5: effect on crop by foliage application, plastic box (symbol g); settings: 320 g/ha, 3 weeks after application
In short: as §1

[15] = system: corn; test: Test Example 4: effect on crop by soil treatment (symbol c); settings: for c: corn, effect grade on crop: 320 g/ha
In short: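 Greenhouse culture at 25° C. to 30° C. followed sowing of seed in spots on sterilized diluvial soil with a soil cover close to 1.5 cm thick.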

[16] = system: corn; test: Test Example 5: effect on crop by foliage application, plastic box (symbol c); settings: 320 g/ha, 3 weeks after application
In short: as §1

[17] = system: directly sowed rice plant; test: Test Example 3: effect on crop by foliage application, Wagner pot (symbol b); settings: application herbicide amount 320 g/ha
In short: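 Wagner pot (1/10000 are), alluvial soil, submerged 0.1–0.5 cm; sown E. crus-galli var. crus-galli, L. chinensis, C. difformis, rice; greenhouse 25–30 °C.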

[18] = system: Echinochloa crus-galli var. crus-galli; test: Test Example 4: herbicidal effect by soil treatment (symbol H)
In short: as §3

[19] = system: Leptochloa chinensis; test: Test Example 3: herbicidal effect by foliage application, Wagner pot (symbol D); settings: application herbicide amount 320 g/ha
In short: as §4

[20] = system: Stellaria media; test: Test Example 5: herbicidal effect by foliage application, plastic box (symbol P); settings: 320 g/ha, 3 weeks after application
In short: as §2

[21] = system: Amaranthus retroflexus; test: Test Example 4: herbicidal effect by soil treatment (symbol N)
In short: as §3

[22] = application herbicide amount 320 g/ha

SMILES	f: beet, effect on crop grade [1]	M: Abutilon theophrasti, herbicidal effect grade [2]	L: Apera spica-venti, herbicidal effect grade [3]	K: Lolium multiflorum Lam., herbicidal effect grade [5]	e: wheat, effect on crop grade [6]	O: Chenopodium album, herbicidal effect grade [8]	G: Setaria viridis, herbicidal effect grade [10]	I: Avena fatua, herbicidal effect grade [11]	herbicidal effect on E, grade 0-5 [12]	g: rapeseed, effect on crop grade [14]	c: corn, effect on crop grade [16]	effect on crop b (directly sowed rice plant), grade 0-5 [17]	herbicidal effect on D (Leptochloa chinensis), grade 0-5 [19]	d: soybean, effect grade on crop [4]	F: Digitaria ciliaris, herbicidal effect grade ([9]; 320 g/ha)	K: Lolium multiflorum Lam., herbicidal effect grade ([13]; 320 g/ha)	c: corn, effect grade on crop [15]	H: Echinochloa crus-galli var. crus-galli, herbicidal effect grade ([18]; 320 g/ha)	also measured
CON=C(C)CC1CC(OC(=O)OC)=C(c2c(C)cc(C)cc2C)C1=O (stereo not drawn) [1-014]	3 (Herbicidal ratio of 40% or higher and lower than 70%)	5 (Herbicidal ratio of 90% or more (almost completely withered))	5 (Herbicidal ratio of 90% or more (almost completely withered))	5 (Herbicidal ratio of 90% or more (almost completely withered))	5 (Herbicidal ratio of 90% or more (almost completely withered))	3 (Herbicidal ratio of 40% or higher and lower than 70%)	5 (Herbicidal ratio of 90% or more (almost completely withered))	5 (Herbicidal ratio of 90% or more (almost completely withered))	5 (Herbicidal ratio of 90% or more (almost completely withered))	4 (Herbicidal ratio of 70% or higher and lower than 90%)	5 (Herbicidal ratio of 90% or more (almost completely withered))	5 (Herbicidal ratio of 90% or more (almost completely withered))	5 (Herbicidal ratio of 90% or more (almost completely withered))	–	–	–	–	–	d (soybean) effect on crop grade [4, 22]: 4 (Herbicidal ratio of 70% or higher and lower than 90%); M (Abutilon theophrasti) herbicidal effect grade [7]: 4 (Herbicidal ratio of 70% or higher and lower than 90%); F (Digitaria ciliaris) herbicidal effect grade [9, 22]: 5 (Herbicidal ratio of 90% or more (almost completely withered)); K (Lolium multiflorum Lam.) herbicidal effect grade [13, 22]: 5 (Herbicidal ratio of 90% or more (almost completely withered)); c (corn) effect on crop grade [15, 22]: 4 (Herbicidal ratio of 70% or higher and lower than 90%); H (Echinochloa crus-galli var. crus-galli) herbicidal effect grade [18, 22]: 5 (Herbicidal ratio of 90% or more (almost completely withered))
CON=C(C)CC1CC(OC(=O)N2CCCC2)=C(c2c(C)cc(C)cc2C)C1=O (stereo not drawn) [1-150]	–	–	–	–	–	–	–	–	–	–	–	5 (Herbicidal ratio of 90% or more (almost completely withered))	4 (Herbicidal ratio of 70% or higher and lower than 90%)	0 (Herbicidal ratio of 5% or lower (almost no effect))	5 (Herbicidal ratio of 90% or more (almost completely withered))	5 (Herbicidal ratio of 90% or more (almost completely withered))	0 (Herbicidal ratio of 5% or lower (almost no effect))	0 (Herbicidal ratio of 5% or lower (almost no effect))	f: beet, effect on crop (criteria 0-5) [1]: 0 (Herbicidal ratio of 5% or lower (almost no effect)); M: Abutilon theophrasti, herbicidal effect (criteria 0-5) [2]: 3 (Herbicidal ratio of 40% or higher and lower than 70%); L: Apera spica-venti, herbicidal effect (criteria 0-5) [3]: 5 (Herbicidal ratio of 90% or more (almost completely withered)); K: Lolium multiflorum Lam., herbicidal effect (criteria 0-5) [5]: 5 (Herbicidal ratio of 90% or more (almost completely withered)); e: wheat, effect on crop (criteria 0-5) [6]: 4 (Herbicidal ratio of 70% or higher and lower than 90%); O: Chenopodium album, herbicidal effect (criteria 0-5) [8]: 0 (Herbicidal ratio of 5% or lower (almost no effect)); G: Setaria viridis, herbicidal effect (criteria 0-5) [10]: 4 (Herbicidal ratio of 70% or higher and lower than 90%); P: Stellaria media, herbicidal effect (criteria 0-5) [20]: 0 (Herbicidal ratio of 5% or lower (almost no effect)); I: Avena fatua, herbicidal effect (criteria 0-5) [11]: 5 (Herbicidal ratio of 90% or more (almost completely withered)); g: rapeseed, effect on crop (criteria 0-5) [14]: 4 (Herbicidal ratio of 70% or higher and lower than 90%); c: corn, effect on crop (criteria 0-5) [16]: 4 (Herbicidal ratio of 70% or higher and lower than 90%)
CON=C(C)CC1CC(OC(=O)C(C)Oc2ccc(Oc3ccc(Cl)cc3Cl)cc2)=C(c2c(C)cc(C)cc2C)C1=O (stereo not drawn) [1-163]	4 (Herbicidal ratio of 70% or higher and lower than 90%)	4 (Herbicidal ratio of 70% or higher and lower than 90%)	5 (Herbicidal ratio of 90% or more (almost completely withered))	5 (Herbicidal ratio of 90% or more (almost completely withered))	5 (Herbicidal ratio of 90% or more (almost completely withered))	3 (Herbicidal ratio of 40% or higher and lower than 70%)	5 (Herbicidal ratio of 90% or more (almost completely withered))	5 (Herbicidal ratio of 90% or more (almost completely withered))	5 (Herbicidal ratio of 90% or more (almost completely withered))	5 (Herbicidal ratio of 90% or more (almost completely withered))	4 (Herbicidal ratio of 70% or higher and lower than 90%)	–	5 (Herbicidal ratio of 90% or more (almost completely withered))	0 (Herbicidal ratio of 5% or lower (almost no effect))	5 (Herbicidal ratio of 90% or more (almost completely withered))	5 (Herbicidal ratio of 90% or more (almost completely withered))	1 (Herbicidal ratio of 5% or higher and lower than 20%)	5 (Herbicidal ratio of 90% or more (almost completely withered))	N: Amaranthus retroflexus, herbicidal effect grade ([21]; 320 g/ha): 4 (Herbicidal ratio of 70% or higher and lower than 90%); P: Stellaria media, herbicidal effect grade [20]: 3 (Herbicidal ratio of 40% or higher and lower than 70%)
CC(=O)CC1CC(OC(=O)C(C)(C)C)=C(c2c(C)cc(C)cc2C)C1=O (stereo not drawn) [2-018]	0 (Herbicidal ratio of 5% or lower (almost no effect))	0 (Herbicidal ratio of 5% or lower (almost no effect))	1 (Herbicidal ratio of 5% or higher and lower than 20%)	4 (Herbicidal ratio of 70% or higher and lower than 90%)	0 (Herbicidal ratio of 5% or lower (almost no effect))	–	1 (Herbicidal ratio of 5% or higher and lower than 20%)	0 (Herbicidal ratio of 5% or lower (almost no effect))	5 (Herbicidal ratio of 90% or more (almost completely withered))	0 (Herbicidal ratio of 5% or lower (almost no effect))	0 (Herbicidal ratio of 5% or lower (almost no effect))	5 (Herbicidal ratio of 90% or more (almost completely withered))	5 (Herbicidal ratio of 90% or more (almost completely withered))	–	–	–	–	–	d: soybean, effect on crop grade [4, 22]: 0 (Herbicidal ratio of 5% or lower (almost no effect)); M: Abutilon theophrasti, herbicidal effect grade [7]: 4 (Herbicidal ratio of 70% or higher and lower than 90%); N: Amaranthus retroflexus, herbicidal effect grade [21, 22]: 3 (Herbicidal ratio of 40% or higher and lower than 70%); F: Digitaria ciliaris, herbicidal effect grade [9, 22]: 5 (Herbicidal ratio of 90% or more (almost completely withered)); K: Lolium multiflorum Lam., herbicidal effect grade [13, 22]: 5 (Herbicidal ratio of 90% or more (almost completely withered)); c: corn, effect on crop grade [15, 22]: 2 (Herbicidal ratio of 20% or higher and lower than 40%); H: Echinochloa crus-galli var. crus-galli, herbicidal effect grade [18, 22]: 5 (Herbicidal ratio of 90% or more (almost completely withered))
